Like-named read-outs stand apart in the source and are kept apart here.
Tests used:
[1] = Supersaturation-precipitation; assay type: physicochemical; conditions: for Duration intended degree of drug supersaturation was maintained / Time to drug precipitation: base buffer, preliminary experiments, SSR 5 (CVDL) / 6 (PXM)
[2] = tested on: Caco-2:HT29-MTX-E12 co-culture monolayers; conditions: human, 100 min
[3] = Equilibrium solubility determination in test media; assay type: physicochemical; conditions: 37 °C; for Equilibrium solubility, effect of addition of mucin: 0.1, 0.2, 0.4 %w/v mucin in 10 mM phosphate buffer pH 6.50 relative to buffer; for Equilibrium solubility, effect of addition of 8 %w/v PIM: 8 %w/v native pig intestinal mucus in 10 mM phosphate buffer pH 6.50 relative to buffer
[4] = tested on: Caco-2 monolayers; conditions: human, 100 min
[5] = 1 SSR (multiple of equilibrium solubility)
[6] = 5 SSR (multiple of equilibrium solubility)

Row | Time after which drug started to precipitate ([1]; SSR = 6, buffer alone, HPLC) [h] | SSR reached at 24 h ([1]; SSR = 6 induced, buffer alone, HPLC) | SSR maintained throughout the monitoring period ([1]; SSR = 6 induced, presence of mucin (regardless of concentration) and PIM, HPLC) | Compound | Time drug remained supersaturated ([1]; SSR = 5, 8 %w/v native PIM, ISE) [h] | Time to precipitation (Tss), effect of increasing mucin concentration ([1]; SSR = 5, ISE, up to 0.2 %w/v mucin) | Time within which supersaturated drug precipitated (ISE) ([1]; SSR = 5, absence of mucus, ISE, average ± SEM, n=3) [min] | Time after which drug precipitated (HPLC) ([1]; SSR = 5, buffer solution, HPLC analysis) [min] | SSR maintained throughout the monitoring period ([1]; SSR = 5 induced, 0.4 %w/v mucin, ISE, 24 h) | SSR maintained throughout the monitoring period ([1]; SSR = 5 induced, 8 %w/v PIM, ISE, 24 h) | Duration intended degree of drug supersaturation was maintained [1] | Time to drug precipitation [1] [h] | TEER relative to starting value [2, 5] [% starting value] | TEER relative to starting value [2, 6] | Equilibrium solubility, effect of addition of mucin [3] | Equilibrium solubility, effect of addition of 8 %w/v PIM [3] | TEER relative to starting value [4, 5] [% starting value] | TEER relative to starting value [4, 6]
1 | – | – | – | COc1ccccc1OCCNCC(O)COc1cccc2[nH]c3ccccc3c12 (stereo not drawn) [CVDL, Carvedilol] | 24 | significantly increased | 19 ± 4 | > 10 | > 3 | > 3 | at least 5 min | ≤ 1 | > 80 | ~ 60 % starting value | did not change | significantly increased | > 80 | ~ 60 % starting value
2 | > 5 | ~ 4 | 6 | CN1C(C(=O)Nc2ccccn2)=C(O)c2ccccc2S1(=O)=O [PXM, piroxicam] | – | – | – | – | – | – | at least 5 min | ≤ 5 | – | – | appeared to increase | significantly increased | – | –

Source: publication PMC6467574 (Journal of controlled release : official journal of the …, 2018)
